Experimental data: patent publication US8912121B2, “Herbicidal compositions comprising 4-amino-3-chloro-5-fluoro-6-(4-chloro-2-fluoro-3-methoxyphenyl)pyridine-2-carboxylic acid or a derivative thereof and certain PS II inhibitors” (Dow Agrosciences LLC, priority 2012, dated 2014)

What was measured:
[1] = test system: VERPE (Veronica persica, Persian speedwell); assay: Postemergence herbicidal activity of mixtures in cereal crops, greenhouse; type: in vivo, Veronica persica Poir.
Method: Seeds of the desired test plant species were planted in Sun Gro MetroMix® 306 planting mixture, which typically has a pH of 6.0 to 6.8 and an organic matter content of about 30 percent, in plastic pots with a surface area of 103.2 square centimeters (cm^2). When required to ensure good germination and healthy plants, a fungicide treatment and/or other chemical or physical treatment was applied. The plants were grown for 7-36 days in a greenhouse with an approximate 14 hour photoperiod which was maintained at about 18° C. during the day and about 17° C. during the night. Nutrients and water were added on a regular basis and supplemental lighting was provided with overhead metal halide 1000-Watt lamps as necessary. The plants were employed for testing when they reached the second or third true leaf stage.
Treatments consisted of the benzyl ester of 4-amino-3-chloro-5-fluoro-6-(4-chloro-2-fluoro-3-methoxy-phenyl)pyridine-2-carboxylic acid (Compound A), formulated as an SC, a second cereal herbicide alone and then both in combination.
Other herbicidal components were applied on an active ingredient basis and included PSII-inhibiting herbicides.
Measured aliquots of benzyl ester of 4-amino-3-chloro-5-fluoro-6-(4-chloro-2-fluoro-3-methoxy-phenyl)pyridine-2-carboxylic acid (Compound A) were placed in 25 milliliter (mL) glass vials and diluted in a volume of 1.25% (v/v) Agri-Dex® crop oil concentrate to obtain stock solutions. Compound requirements are based upon a 12 mL application volume at a rate of 187 liters per hectare (L/ha). Spray solutions of the second cereal herbicide and experimental compound mixtures were prepared by adding the stock solutions to the appropriate amount of dilution solution to form 12 mL spray solution with active ingredients in two- and three-way combinations. Formulated compounds were applied to the plant material with an overhead Mandel track sprayer equipped with an 8002E nozzle calibrated to deliver 187 L/ha over an application area of 0.503 square meters (m^2) at a spray height of 18 inches (46 cm) above average plant canopy. Control plants were sprayed in the same manner with the solvent blank.
The treated plants and control plants were placed in a greenhouse as described above and watered by sub-irrigation to prevent wash-off of the test compounds. After 20-22 days, the condition of the test plants as compared with that of the control plants was determined visually and scored on a scale of 0 to 100 percent where 0 corresponds to no injury and 100 corresponds to complete kill.
Colby's equation was used to determine the herbicidal effects expected from the mixtures (Colby, S. R. 1967. Calculation of the synergistic and antagonistic response of herbicide combinations. Weeds 15:20-22).
The following equation was used to calculate the expected activity of mixtures containing two active ingredients, A and B: Expected=A+B−(A×B/100)

[2] = test system: ECHOR (Echinochloa oryzoides, early watergrass); assay: In-water applied mixtures, transplanted paddy rice, greenhouse; type: in vivo, Echinochloa oryzoides (Ard.) Fritsch; conditions: 19 DAA
Method: Weed seeds or nutlets of the desired test plant species were planted in puddled soil (mud) prepared by mixing a shredded, non-sterilized mineral soil (50.5 percent silt, 25.5 percent clay, and 24 percent sand, with a pH of about 7.6 and an organic matter content of about 2.9 percent) and water at a 1:1 volumetric ratio. The prepared mud was dispensed in 365 mL aliquots into 16-ounce (oz.) non-perforated plastic pots with a surface area of 86.59 square centimeters (cm^2) leaving a headspace of 3 centimeters (cm) in each pot Mud was allowed to dry overnight prior to planting or transplanting. Rice seeds were planted in Sun Gro MetroMix® 306 planting mixture, which typically has a pH of 6.0 to 6.8 and an organic matter content of about 30 percent, in plastic plug trays. Seedlings at the second or third leaf stage of growth were transplanted into 840 mL of mud contained in 32-oz. non-perforated plastic pots with a surface area of 86.59 cm^2 4 days prior to herbicide application. The paddy was created by filling the headspace of the pots with 2.5 to 3 cm of water. When required to ensure good germination and healthy plants, a fungicide treatment and/or other chemical or physical treatment was applied. The plants were grown for 4-22 days in a greenhouse with an approximate 14 h photoperiod which was maintained at about 29° C during the day and 26° C. during the night. Nutrients were added as Osmocote® (19:6:12, N:P:K+ minor nutrients) at 2 g per 16-oz. pot and 4 g per 32-oz. pot. Water was added on a regular basis to maintain the paddy flood, and supplemental lighting was provided with overhead metal halide 1000-Watt lamps as necessary. The plants were employed for testing when they reached the first through fourth true leaf stage.
Treatments consisted of the acid or esters of 4-amino-3-chloro-5-fluoro-6-(4-chloro-2-fluoro-3-methoxy-phenyl)pyridine-2-carboxylic acid (compound A) each formulated as an SC (suspension concentrate) and various herbicidal components alone and in combination. Forms of compound A were applied on an acid equivalent basis.
Other herbicidal components were applied on an active ingredient basis and included photosystem II (PSII)-inhibits propanil formulated as […] bentazon-sodium formulated as Basagran®, and simetryne (technical grade material).
Treatment requirements for each compound or herbicidal component were calculated based upon the rates being tested, the concentration of active ingredient or acid equivalent in the formulation, an application volume of 2 mL per component per pot, and an application area of 86.59 cm^2 per pot.
For formulated compounds, a measured amount was placed in an individual 100 or 200 mL glass vial and was dissolved in a volume of 1.25% (v/v) Agri-Dex® crop oil concentrate to obtain application solutions.
For technical grade compounds, a weighed amount was placed in an individual 100 to 200 mL glass vial and was dissolved in a volume of acetone to obtain concentrated stock solutions. […] The concentrated stock solutions obtained were diluted with an equivalent volume of an aqueous mixture containing 2.5% (v/v) crop oil concentrate so that the final application solutions contained 1.25% (v/v) crop oil concentrate.
Applications were made by injecting with a pipetter appropriate amounts of the application solutions, individually and sequentially, into the aqueous layer of the paddy. Control plants were treated in the same manner with the solvent blank. Applications were made so that all treated plant material received the same concentrations of acetone and crop oil concentrate.
The treated plants and control plants were placed in a greenhouse as described above and water was added as needed to maintain a paddy flood. After approximately 3 weeks the condition of the test plants as compared with that of the untreated plants was determined visually and scored on a scale of 0 to 100 percent where 0 corresponds to no injury or growth inhibition and 100 corresponds to complete kill. […]

COc1c(Cl)ccc(-c2nc(C(=O)OCc3ccccc3)c(Cl)c(N)c2F)c1F [Compound A Benzyl Ester, benzyl ester of 4-amino-3-chloro-5-fluoro-6-(4-chloro-2-fluoro-3-methoxy-phenyl)pyridine-2-carboxylic acid]
Visual Weed Control (%) - 21 DAA VERPE Obs ([1]; Compound A Benzyl Ester 5 g ai/ha): 17%
Visual Weed Control (%) - 21 DAA VERPE Obs ([1]; Compound A Benzyl Ester 10 g ai/ha): 23%
Visual Weed Control (%) Obs ([2]; 8 g ae/ha): 10%
Visual Weed Control (%) Obs ([2]; 16 g ae/ha): 20%
Visual Weed Control (%) Obs ([2]; 32 g ae/ha): 25%
